Test results reported in patent publication US8710098B2, “Group of amino substituted benzoyl derivatives and their preparation and their use” (priority 2008, dated 2014).
≈ marks a conversion by molar mass, not a printed value.

target: T1, hA3G degradation mediated by HIV-1 Vif (UniProt P69723+Q9HC16); experiment: Screening experiment for up-regulation activity to hA3G (YFP-fused hA3G co-expressed with HIV-1 Vif, fluorescence); assay type: cell-based, human; conditions: YFP fluorescence of cells co-expressing Vif and hA3G-YFP; excitation 485 nm, detection 520 nm; averages of duplicates
T1 construct: expressed in transfected cells
Description: Based on the advances making research on the hA3G degradation mediated by HIV-1 Vif, this invention establishes a high throughput anti-HIV-1 drug screening model using hA3G degradation mediated by HIV-1 Vif as target, to screen small molecule active compounds capable of inhibiting this degradation process. The function principle of this model is that HIV-1 Vif protein and hA3G fused yellow fluorescent protein (YFP) co-expressed in the cells, then the intracellular fluorescence intensity (at […]) decreases owing to the degradation of hA3G caused by Vif and subsequent degradation of YEP fused on hA3G. By means of measuring the change of fluorescent intensity, the influence of the screened compounds on the degradation of hA3G caused by Vif can quantitatively be analyzed. Simultaneously, to differentiate the non-specific inhibitory effect of diverse ubiquitin degradation route in the samples, this invention establishes a recheck model based on the detection of P53 degradation caused by the product of adenovirus early gene, to assure that the positive samples screened out by the proposed model can specifically block the degradation of hA3G caused by Vif.
Screening Experiment for Up-Regulation Activity to hA3G
The cells are picked up and cultured a culture bottle. When the cells grow full of the culture bottle, old culture medium is discarded and the cells are digested with digestion medium. When the cells turn round, the digestion medium is discarded and the culture medium is added in at once, the bottom of the bottle is gently blown with a pipette to make the cells disengage the bottle bottom and disperse into single cell suspension. After counting the cells using blood cell counting chamber, the cell suspension is inoculated into a culture dish for transfection. The medium containing the plasmid to be transfected and the transfection reagents is gently mixed up and incubated at room temperature. The medium is then added into the supernatant of the cell culture and cultured for a certain period of time. The old culture medium is then sucked out, the cells are digested with digestive medium, the digestive medium is subsequently discarded and culture medium is immediately added. The medium is gently blown to disperse the cells into single cell suspension. After counting the cells using blood cell counting chamber, the cells are ready for inoculation.
Samples of compounds[…]Pure tested compounds are dissolved in DMSO, the solution is diluted with equal proportional distilled water. The diluent is used to test the cell systems.
Sample solution of different concentration is added into the supernatant of a cell culture. After the cells are continuously cultured, old culture medium is sucked out and the cells are blown with PBS buffer until the cells completely disengage from the culture bottle.
The fluorescence intensity values of the cell suspension with test compound samples, positive control samples and negative control samples are respectively measured with fluorometer, the excitation wavelength is 485 nm and the detection wavelength 520 nm. Averages of duplicated measurements are taken as the results.
The measured fluorescence intensity values of the negative control samples (blink sample) subtracted from those of test compound samples, the results are taken as YFP fluorescence of different groups. Relative fluorescence intensity=fluorescence intensity of a test sample group/fluorescence intensity of the positive control group×100% Inhibition rate of degradation=(test sample group−negative control group)/(positive control group−negative control group)×100%

T1 sequence (P69723 whole entry, the tested form may be a part): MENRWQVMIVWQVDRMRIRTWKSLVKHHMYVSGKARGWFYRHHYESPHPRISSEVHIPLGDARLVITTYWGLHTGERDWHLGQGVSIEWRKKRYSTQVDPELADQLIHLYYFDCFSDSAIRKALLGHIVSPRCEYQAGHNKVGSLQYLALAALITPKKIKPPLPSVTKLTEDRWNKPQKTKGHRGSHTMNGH
T1 sequence (Q9HC16 whole entry, the tested form may be a part): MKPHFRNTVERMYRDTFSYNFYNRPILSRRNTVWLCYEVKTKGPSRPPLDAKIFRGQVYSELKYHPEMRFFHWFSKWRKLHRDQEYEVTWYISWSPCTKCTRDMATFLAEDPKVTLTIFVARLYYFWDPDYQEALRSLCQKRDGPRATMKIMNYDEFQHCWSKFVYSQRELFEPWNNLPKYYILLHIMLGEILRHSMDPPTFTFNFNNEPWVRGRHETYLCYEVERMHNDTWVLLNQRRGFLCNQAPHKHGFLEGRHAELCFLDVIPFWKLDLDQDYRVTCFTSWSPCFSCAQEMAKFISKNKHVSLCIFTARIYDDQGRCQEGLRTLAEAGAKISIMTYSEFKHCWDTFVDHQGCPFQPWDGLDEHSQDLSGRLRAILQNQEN

| Structure (SMILES) | hA3G up-regulation activity (%) |
| --- | --- |
| COc1ccc(C(=O)Nc2cc(OC)c(OC)c(OC)c2)cc1NC(=O)C(C)Br (stereo not drawn) [Compound 26] | 42.7 |
| COc1ccc(C(=O)Oc2cc(OC)c(OC)c(OC)c2)cc1NC(=O)C(C)Br (stereo not drawn) [Compound 35] | 44.9 |
| CCC(=O)Nc1cc(C(=O)Nc2ccccc2)ccc1OC [Compound 60] | 16.3 |
| CCC(=O)Nc1cc(C(=O)Nc2ccncn2)ccc1OC [Compound 61, N-(pyrimidyl-4′-)-4-methoxy-3-propionamidobenzamide] | 11.8 |
| CCC(=O)Nc1cc(OC(=O)c2cc(OC)c(OC)c(OC)c2)ccc1OC [Compound 62] | 40.1 |
| CCC(=O)Nc1cc(OC)ccc1C(=O)Nc1cc(OC)c(OC)c(OC)c1 [Compound 63, N-(3′,4′,5′-trimethoxyphenyl)-2-propionamido-4-methoxybenzamide] | 21.3 |
| CCC(=O)Nc1ccc(C(=O)Nc2cc(OC)c(OC)c(OC)c2)cc1OC [Compound 64, N-(3′,4′,5′-trimethoxyphenyl)-3-methoxy-4-propionamidobenzamide] | 11.7 |
| CCC(=O)Nc1cc(C(=O)Nc2ccc(OC(F)(F)F)cc2)ccc1OC [Compound 67] | 11.3 |
| COc1ccc(C(=O)Nc2cc(OC)c(OC)c(OC)c2)cc1C#N [Compound 68, N-(3′,4′,5′-trimethoxyphenyl)-3-cyano-4-methoxybenzamide] | 9.8 |
| CCC(=O)Nc1cc(C(=O)Nc2ccc(OC(F)(F)F)cc2)ccc1C [Compound 69, N-(4′-trifluoromethoxyphenyl)-3-propionamido-4-methylbenzamide] | 31.2 |
| CCC(=O)Nc1cc(C(=O)Nc2ccc(OC(F)(F)F)cc2)ccc1F [Compound 70] | 24.7 |
| COc1cc(OC(=O)c2cc(Cl)cc(NC(C)=O)c2)cc(OC)c1OC [Compound 72] | 24.3 |
| COc1cc(OC(=O)c2cc(NC(C)=O)cc(C(F)(F)F)c2)cc(OC)c1OC [Compound 73, 3′,4′,5′-trimethoxyphenyl 3-acetamido-5-trifluoromethylbenzoate] | 29.0 |
| COc1cc(NC(=O)c2cc(NC(C)=O)cc(C(F)(F)F)c2)cc(OC)c1OC [Compound 74] | 8.5 |
| CCC(=O)Nc1cc(C(=O)Nc2cc(OC)c(OC)c(OC)c2)cc(OC)c1F [Compound 75, N-(3′,4′,5′-trimethoxyphenyl)-3-propionamido-4-fluoro-5-methoxybenzamide] | −1.1 |
| CCC(=O)Nc1cc(C(=O)Nc2cc(OC)c(OC)c(OC)c2)cc(F)c1OC [Compound 77] | 14.9 |
| CCC(=O)Nc1cc(C(=O)Nc2ccc(OC)c(F)c2)ccc1OC [Compound 78] | 8.8 |
| CCC(=O)Nc1cc(C(=O)Nc2cc(OC)c(OC)c(OC)c2)c(F)cc1OC [Compound 79, N-(3′,4′,5′-trimethoxyphenyl)-3-propionamido-4-methoxy-6-fluorobenzamide] | 21.6 |
| CCC(=O)Nc1cc(C(=O)Nc2ccc(N)c(F)c2)ccc1OC [Compound 80, N-(3′-fluoro-4′-aminophenyl)-3-propionamido-4-methoxybenzamide] | 37.1 |
| CCC(=O)Nc1cc(C(=O)Nc2cc(OC)c(NC)c(OC)c2)ccc1OC [Compound 81] | 14.4 |
| CCC(=O)Nc1cc([S+]([O-])Nc2cc(OC)c(OC)c(OC)c2)ccc1OC (stereo not drawn) [Compound 82] | 28.5 |
| CCC(=O)Nc1cc(S(=O)(=O)Nc2cc(OC)c(OC)c(OC)c2)ccc1OC [Compound 83, N-(3′,4′,5′-trimethoxyphenyl) 3-propionamido-4-methoxybenzenesulfamide] | 31.0 |

| Structure (SMILES) | hA3G up-regulation activity (%) |
| --- | --- |
| CCC(=O)Nc1cc(S(=O)(=O)Oc2cc(OC)c(OC)c(OC)c2)ccc1OC [Compound 84, 3′,4′,5′-trimethoxyphenyl 3-propionamido-4-methoxybenzenesulfonate] | 9.0 |
| COc1ccc(S(=O)(=O)Nc2cc(OC)c(OC)c(OC)c2)cc1N [Compound 85, N-(3′,4′,5′-trimethoxyphenyl)-3-amino-4-methoxybenzenesulfonamide] | 6.8 |
| CCC(=O)Oc1cc(C(=O)Nc2cc(OC)c(OC)c(OC)c2)ccc1OC [Compound 86] | 20.3 |
| COc1ccc(C(=O)Nc2cc(OC)c(OC)c(OC)c2)cc1O [Compound 87, N-(3′,4′,5′-trimethoxyphenyl)-3-hydroxyl-4-methoxybenzamide] | 19.7 |
| CCC(=O)Nc1cc(NNc2cc(OC)c(OC)c(OC)c2)ccc1OC [Compound 89] | 31.3 |
| COc1ccc(S(=O)(=O)Nc2cc(OC)c(OC)c(OC)c2)cc1O [Compound 90] | 28.2 |
| CCC(=O)Nc1cc(NS(=O)(=O)c2cc(OC)c(OC)c(OC)c2)ccc1OC [Compound 91, N-(3′-propionamido-4′-methoxyphenyl)-(3,4,5-trimethoxy)benzenesulfonamide] | 16.6 |
| CCC(=O)Nc1cc(NS(=O)(=O)c2cc(OC)nc(OC)n2)ccc1OC [Compound 92] | 23.7 |
| CCC(=O)Nc1cc(S(=O)(=O)Nc2cc(OC)nc(OC)n2)ccc1OC [Compound 93] | 34.2 |
| CCC(=O)Nc1cc(S(=O)(=O)Nc2ccc(OC)c(OC)c2)ccc1OC [Compound 94] | 16.1 |
| CCC(=O)Nc1cc(S(=O)(=O)Nc2ccc(OC)c(OC)c2)cc(F)c1OC [Compound 95] | 8.7 |
| CCC(=O)Nc1cc(S(=O)(=O)Nc2ccc(NC)c(OC)c2)ccc1OC [Compound 96] | 6.9 |
| CCC(=O)Nc1cc(C(=O)Nc2ccc(OC)c(S(N)(=O)=O)c2)ccc1OC [Compound 97] | 6.4 |
| CNc1cc(C(=O)Nc2ccc(S(N)(=O)=O)c(F)c2)ccc1OC [Compound 98, N-(3′-fluoro-4′-aminosulfonylphenyl)-3-methylamino-4-methoxybenzamide] | 5.8 |
| CCC(=O)Nc1cc(C(=O)Nc2ccc(S(N)(=O)=O)c(OC)c2)ccc1OC [Compound 99] | 23.6 |
| CCC(=O)Nc1cc(C(=O)Nc2ccc(S(N)(=O)=O)c(F)c2)ccc1OC [Compound 100] | 13.6 |
| COc1ccc(C(=O)Nc2cc(OC)c(OC)c(OC)c2)cc1NS(C)(=O)=O [Compound 101] | 22.1 |
| COc1ccc(C(=O)Nc2ccc(OC)c(OC)c2)cc1NS(C)(=O)=O [Compound 102] | 10.3 |
| COc1ccc(C(=O)Oc2cc(OC)c(OC)c(OC)c2)cc1NS(C)(=O)=O [Compound 103, 3′,4′,5′-trimethoxyphenyl 3-methanesulfamido-4-methoxybenzoate] | 26.1 |
| COc1ccc(C(=O)Oc2cc(OC)c(OC)c(OC)c2)cc1NC(=O)C(F)(F)F [Compound 353, 3,4,5-trimethoxyphenyl 3-trifluoroacetamido-4-methoxybenzoate] | 39.0 |
| CCC(=O)Nc1cc(C(=O)Nc2ccc([N+](=O)[O-])cc2)ccc1OC [Compound 2612, N-(4′-nitrophenyl)-3-propionamido-4-methoxybenzamide] | 22.3 |

tested on: HIV-1; experiment: microbe, parasite or virus in culture; conditions: Human immunodeficiency virus 1, 96 h, read-out: inhibitory activity to HIV-1, IC50
Description: The inhibitory activities of the compounds proposed in this invention to HIV-1 were measured using HIV-1 P24 antigen kit.
DMSO solutions of samples of test compounds listed in Table 2 diluted to 8 different concentrations and the solution of the positive control AZT (azidothymidine, 0.15 ng/ml) are respectively added into 96 well plates, duplications are set for each of the dilutions, and negative control samples are also made. Aliquots of 100 μl 2×10^5 cell/ml suspension are inoculated onto the 96 well cell culture plates and cultured in an incubator under a condition of 37° C., 5% CO2 and saturated humidity. The pathologic changes of the cells are observed every day. The HIV-1 P24 antigen contents in supernatant cells are measured in 4 days (96 h) after addition of the test compounds according to the operation procedure provided by the HIV-1 P24 antigen kit.

| Structure (SMILES) | IC50 [µg/mL] |
| --- | --- |
| COc1ccc(C(=O)Nc2cc(OC)c(OC)c(OC)c2)cc1NC(=O)C(C)Br (stereo not drawn) [Compound 26] | 0.0203 (≈ 0.0434 µM) |
| COc1ccc(C(=O)Oc2cc(OC)c(OC)c(OC)c2)cc1NC(=O)C(C)Br (stereo not drawn) [Compound 35] | 0.0223 (≈ 0.0476 µM) |
